# Test results published in the supplement of paper PMC10307832.
# Legend:
# Assay in all cases: relative viability (nuclei count vs DMSO), 5 days (fraction); higher = more cells survive
# Linsitinib + Tozasertib = compound: C[C@]1(O)C[C@@H](c2nc(-c3ccc4ccc(-c5ccccc5)nc4c3)c3c(N)nccn32)C1 [Linsitinib] + Cc1cc(Nc2cc(N3CCN(C)CC3)nc(Sc3ccc(NC(=O)C4CC4)cc3)n2)n[nH]1 [Tozasertib] (partner 0.1 µM)
# Summary of the method: (§1)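 Relative viability is defined as nuclei in treated wells over nuclei in vehicle wells. Duplicate plates were run and medians reported. Lung cancer cell lines in 1536-well plates were dosed by pin tool one day after seeding, with one drug or with a fixed anchor-drug dose plus five library-drug doses (not always all listed) in √10 steps, and nuclei were counted after 5 days.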
# Linsitinib + Pemetrexed = compound: C[C@]1(O)C[C@@H](c2nc(-c3ccc4ccc(-c5ccccc5)nc4c3)c3c(N)nccn32)C1 [Linsitinib] + Nc1nc2[nH]cc(CCc3ccc(C(=O)N[C@@H](CCC(=O)O)C(=O)O)cc3)c2c(=O)[nH]1 [Pemetrexed] (partner 0.2 µM)
# Summary of the method: as §1
# Ispinesib + Dasatinib = compound: Cc1ccc(C(=O)N(CCCN)[C@@H](c2nc3cc(Cl)ccc3c(=O)n2Cc2ccccc2)C(C)C)cc1 [Ispinesib] + Cc1nc(Nc2ncc(C(=O)Nc3c(C)cccc3Cl)s2)cc(N2CCN(CCO)CC2)n1 [Dasatinib] (partner 0.075 µM)
# Summary of the method: as §1
cell line,measurement,setting,value
UMC-11,relative viability,Linsitinib + Tozasertib; first compound 0.01 µM,0.204
same,relative viability,Linsitinib + Tozasertib; first compound 0.1 µM,0.196
same,relative viability,Linsitinib + Tozasertib; first compound 1 µM,0.19
same,relative viability,Linsitinib + Pemetrexed; first compound 0.01 µM,0.7
same,relative viability,Linsitinib + Pemetrexed; first compound 0.03162 µM,0.771
same,relative viability,Linsitinib + Pemetrexed; first compound 0.1 µM,0.817
same,relative viability,Linsitinib + Pemetrexed; first compound 0.3162 µM,0.597
same,relative viability,Linsitinib + Pemetrexed; first compound 1 µM,0.776
same,relative viability,Ispinesib + Dasatinib; first compound 0.001 µM,0.542
same,relative viability,Ispinesib + Dasatinib; first compound 0.003162 µM,0.544
same,relative viability,Ispinesib + Dasatinib; first compound 0.01 µM,0.317
same,relative viability,Ispinesib + Dasatinib; first compound 0.03162 µM,0.185
same,relative viability,Ispinesib + Dasatinib; first compound 0.1 µM,0.233
